Results as given in patent US12653805B2, “Targeting LASP1, eIF4A1, eIF4B and CXC4 with modulators and combinations thereof for cancer therapy” (The University of Toledo, priority 2019, dated 2026).

Key:
MDA-MB-231 cells = conditions: cited from earlier work
[1] = system: LASP1-eIF4A/eIF4B association in 231S cells; test: Co-immunoprecipitation of LASP1 with eIF4A/eIF4B; assay type: cell-based, human
Experimental: Subconfluent 231S cells were serum-starved for 1 hour and stimulated with 10-20 nM CXCL12 (PeptroTech, Rocky Hill, N.J., Cat. No. 300-28A) over different time points. […] Total protein in the clarified lysate was quantified using a Bradford protein assay (Bio-Rad, Hercules, Calif., Cat. No. 5000006). 1 mg of total protein lysate was employed in all immunoprecipitation reactions. eIF4B was immunoprecipitated by using 2 μg of eIF4B antibody (Cell Signaling Technology, Danvers, Mass., Cat. No. 13088). Mouse (G3A1) mAb IgG1 Isotype Control (Cell Signaling Technology, Danvers, Mass., Cat. No. 5415) served as the mock control. Next, eIF4A was immunoprecipitated using 2 μg of eIF4A1 antibody (Cohesion Biosciences, London, Purley, Cat. No. CQA1180). His-Tag (D3L10) XP® Rabbit mAb (Cell Signaling Technology, Danvers, Mass., Cat. No. 12698) was employed for the mock condition. Finally, in the reciprocal Co-IP, LASP1 was immunoprecipitated by using 2 μg LASP1 antibody (Biolegend, San Diego, Calif., Cat. No. 909301). As in the eIF4B Co-IP, mouse (G3A1) IgG1 isotype mAb was employed as the mock control. […] Proteins of interest were analyzed by sodium dodecyl sulfate-polyacrylamide gel electrophoresis (SDS-PAGE) and Western blotting.

[2] = system: eIF4F complex in 231S cells; test: m7GTP pulldown assay (eIF4F complex); assay type: cell-based, human
Experimental: 231S cells were serum starved for 1 h and cells were stimulated (and prepared) as described in the co-immunoprecipitation section. 100 nM AMD3465 (CXCR4 antagonist, Sigma-Aldrich, St. Louis, Mo., Cat. No. SML1433-5MG) was incubated 30 min prior to stimulation. 1 mg of total protein lysate in 1 mL of Co-IP buffer was incubated with 25 μL of m7-GTP agarose beads overnight at 4° C. (Jena Biosciences, Jena, Germany, Cat. No. AC-155S). Following incubation, beads were washed with Co-IP buffer. Protein was eluted and analyzed by SDS-PAGE and Western blotting.

[3] = system: CXCR4 signaling in 231S cells; test: Western blotting of phosphorylation of eIF4B, PDCD4, 4E-BP1 after CXCR4 activation; assay type: cell-based, human
Experimental: (§1) Cell lysates were prepared and quantified as described. Western blots were incubated with the following 1° Abs: Cyclin D1 (Cell Signaling Technology, Danvers, Mass., Cat. No. 2922), eIF4A C32B4 (Cell Signaling Technology, Danvers, Mass., Cat. No. 2013), eIF4B 1F5 (Cell Signaling Technology, Danvers, Mass., Cat. No. 13088), p-eIF4B S422 (Thermo Scientific, Rockford, Ill., Cat No. PA5-38362), eIF4E C46H6 (Cell Signaling Technology, Danvers, Mass., Cat. No. 2067), eIF4G C45A4 (Cell Signaling Technology, Danvers, Mass., Cat. No. 2469), GST 26H1 (Cell Signaling Technology, Danvers, Mass., Cat. No. 2624), LASP1 8C6 (Biolegend, San Diego, Calif., Cat. No. 909301), MDM2 SMP14 (Santa Cruz Biotechnology, Dallas, Tex., Cat. No. sc-965), PDCD4 D29C6 (Cell Signaling Technology, Danvers, Mass., Cat. No. 9535), p-PDCD4 S67 (Sigma-Aldrich, St. Louis, Mo., Cat. No. P0072), ROCK1 C8F7 (Cell Signaling Technology, Danvers, Mass., Cat. No. 4035), survivin 71G4B7 (Cell Signaling Technology, Danvers, Mass., Cat. No. 2808), 4E-BP1 53H11 (Cell Signaling Technology, Danvers, Mass., Cat. No. 9644), p-4E-BP1 Thr70 (Cell Signaling Technology, Danvers, Mass., Cat. No. 9455), and β-tubulin D66 (Sigma/Aldrich, St. Louis, Mo., Cat. No. T0198). Following primary incubation, Western blots were incubated with Goat anti-Mouse IgG (H+L) Superclonal™ Secondary Ab conjugated to HRP (Thermo Scientific, Rockford, Ill., Cat No. A28177) or Goat anti-Rabbit IgG (H+L) Superclonal™ Secondary Ab conjugated to HRP (Thermo Scientific, Rockford, Ill., Cat No. A27036). Finally, blots were developed with Amersham™ ECL™ Prime Western Blotting Detection Reagent (GE Healthcare Life Sciences, Pittsburgh, Pa., Cat. No. RPN2232) and HyBlot ES™ Autoradiography Film (Denville Scientific, Swedesboro, N.J., Cat. No. E3212). Densitometry of the Western blots was performed using ImageJ. Calculation of fold change is given in the figure legend for each experiment.

231S LASP1 NS cells = test: Western blotting of eIF4A-dependent genes after CXCL12 stimulation; assay type: cell-based, human; conditions: control-silenced (LASP1 NS) 231S cells, 10-20 nM CXCL12
Experimental: as §1, with “Following primary incubation, Western blots were incubated with Goat anti-Mouse IgG (H+L) Superclonal™ Secondary Ab conjugated to HRP (Thermo Scientific, Rockford, Ill., Cat No. A28177) or Goat anti-Rabbit IgG (H+L) Superclonal™ Secondary Ab conjugated to HRP (Thermo Scientific, Rockford, Ill., Cat No. A27036). Finally, blots were developed with Amersham™ ECL™ Prime Western Blotting Detection Reagent (GE Healthcare Life Sciences, Pittsburgh, Pa., Cat. No. RPN2232) and HyBlot ES™ Autoradiography Film (Denville Scientific, Swedesboro, N.J., Cat. No. E3212). Densitometry of the Western blots was performed using ImageJ. Calculation of fold change is given in the figure legend for each experiment.” left out

[4] = system: LASP1-eIF4A interaction in 231S cells; test: Proximity ligation assay (PLA) of LASP1-eIF4A interaction; assay type: cell-based, human
Experimental: The Duolink In Situ Orange Fluorescent kit (Sigma/Aldrich, St. Louis, Mo., Cat. No. DUO92102-1KT) was employed to detect the endogenous interaction between LASP1 and eIF4A in situ in 231S cells. The PLA was performed according to the manufacturer's instructions using a rabbit eIF4A1 antibody (Cohesion Biosciences, London, Purley, Cat. No. CQA1180) and a mouse LASP1 antibody (Biolegend, San Diego, Calif., Cat. No. 909301). The single Ab control condition represents the PLA reaction with only the LASP1 antibody. In addition, cells were stained with phalloidin (Life Technologies, Carlsbad, Calif., Cat. No. A12379) and nuclei with DRAQ5 (Thermo Scientific, Rockford, Ill., Cat No. 62251). Cells were stimulated and inhibited as described. Moreover, cells were fixed, stained, and permeabilized with standard methods. The images were acquired by two-photon confocal microscopy and processed with Leica Application Suite X software (Leica, Wetzlar, Germany). Quantification of the interaction dots was performed using ImageJ.

Row | Molecule | IC50 (MDA-MB-231 cells) [nM] | increase in association of LASP1 with eIF4B (reciprocal Co-IP) ([1]; 20 nM CXCL12, 0 min set to 1) [fold] | association of endogenous LASP1 and eIF4A1 (reciprocal Co-IP) ([1]; 20 nM CXCL12, 5 min, 0 min set to 1) [fold] | eIF4G-eIF4E interaction (eIF4G recruitment) ([2]; 20 nM CXCL12, 20 min) [fold] | association of endogenous LASP1 with eIF4E ([2]; 20 nM CXCL12, peak at 5 min) [fold] | eIF4G-eIF4E interaction (eIF4G recruitment) ([2]; 20 nM CXCL12, peak at 5 min) [fold] | phosphorylation of PDCD4 (pS67) ([3]; CXCL12, 5 min) [fold] | phosphorylation of PDCD4 (pS67) ([3]; CXCL12, peak at 10 min) [fold] | protein levels of CCND1, BIRC5, Mdm2, and ROCK1 (231S LASP1 NS cells) | stimulation of the interaction between LASP1 and eIF4A ([4]; CXCL12 5 min vs unstimulated) [fold] | LASP1-eIF4A interaction dots (interactions/cell) ([4]; CXCL12 incubation for 5 min (20 nM), unstimulated 11.6±6.5) [dots]
1 | COC(=O)[C@H]1[C@@H](O)[C@@]2(O)c3c(OC)cc(O[C@@H]4O[C@@H]([C@H](O)CO)CO[C@H]4OC)cc3O[C@@]2(c2ccc(OC)cc2)[C@@H]1c1ccccc1 [Silvestrol] | 60 |  |  |  |  |  |  |  |  |  | 
2 | CXCL12: ligand for CXCR4 (PeproTech), used to stimulate cells |  | 7.5 | 19.1 | 2.2 | 2.2 | 4.4 | 3.3 | 3.9 | considerable increases | 3 | 118±58.3
